Measurements published in patent US20220281899A1, “COMPOUND AND FLUORESCENTLY LABELED BIOLOGICAL SUBSTANCE USING THE SAME” (FUJIFILM Corporation, priority 2019, published 2022).

What was measured:
Assay type in all cases: physicochemical
[1] = Evaluation of water solubility (PBS pH 7.4, UHPLC concentration of filtrate); settings: compound; PBS pH 7.4, 1% DMSO, 200 μM if completely dissolved
Method: 5 μL of a DMSO solution having a concentration of 20 mM of the above compound (hereinafter, referred to as a sample) and 495 μL of PBS having a pH of 7.4 were added and mixed in a 1.5 mL Eppendorf tube and stirred with a multi-shaker MS300 (product name, AS ONE Corporation) at 2,000 rpm for 30 minutes. The obtained mixed solution was allowed to be left for 60 minutes with light shielding and then subjected to centrifugal precipitation (12,000 rpm, 5 minutes). For the filtrate filtered using a filter having a pore diameter of 0.20 μm, the sample concentration was measured with Nexera UHPLC [product name, manufactured by Shimadzu Corporation, column: Shim-pack XR-ODSII] (the sample concentration is 200 μM in a case where the sample is completely dissolved) and evaluated based on the following evaluation standards.
In the present test, it is determined that a compound has passed the evaluation of the water solubility in a case where the compound has a rank “B” or higher.
B: 10 μM or more and less than 100 μM
C: 1 μM or more and less than 10 μM […]
(§1) The water solubility and the fluorescence quantum of the labeled antibody were evaluated according to the same methods as those described in Example 1 except that in the evaluation of the water solubility and the fluorescence quantum yield in Example 1, the sample for measurement was changed from the compound to the labeled antibody.

[2] = Evaluation of fluorescence quantum yield (PBS solution, pH 7.4); settings: compound
Method: A PBS solution (pH 7.4) of the above compound was evaluated according to the method described in the following reference document.
“A Guide to Recording Fluorescence Quantum Yields” (a HORIBA Scientific document, available from https://www.horiba.com/fileadmin/uploads/Scientific/Documents/Fluorescence/quantumyields trad.pdf)
In the present test, it is preferable that the fluorescence quantum yield satisfies the evaluation rank “B” or higher from the viewpoint of practicality as the fluorescent compound.
B: 0.7 or more and less than 0.9
C: 0.5 or more and less than 0.7
D: 0.3 or more and less than 0.5
F: not evaluable due to low water solubility
as §1

[3] = Evaluation of light resistance in aqueous solution (xenon lamp exposure, absorbance decrease); settings: compound; PBS pH 7.4; xenon lamp 22 mW/cm^2
Method: The above compound or labeled antibody (hereinafter, referred to as a sample) was dissolved in PBS having a pH of 7.4 so that the absorbance at the absorption wavelength peak was 0.095 to 0.105. In a state of being exposed to light using a merry-go-round type light irradiator, the obtained solution was subjected to the temporal measurement of the absorbance of the absorption wavelength peak of the sample with a spectroscope (manufactured by Agilent Technologies, Inc., product name: Agilent 8453).
For the light exposure using the merry-go-round type light irradiator, a xenon lamp UXL-500D-O (product name) manufactured by Ushio, Inc. was used, and an HA-50 filter and a Y44 filter manufactured by HOYA were used as sharp cut filters (both are product names), where the light exposure intensity was 22 mW/cm^2 (in terms of 500 nm conversion).
The absorbance at the absorption peak wavelength before light exposure was set to 100% and the light exposure time until the absorbance at this absorption peak wavelength decreases by 50% (the absorbance at the absorption peak wavelength reaches 50%) was measured. The results were evaluated based on the following evaluation standards. A high evaluation rank is highly preferable since stability is kept for a long time.
B: 60 hours or more and less than 80 hours
C: 40 hours or more and less than 60 hours
D: 20 hours or more and less than 40 hours […]

SMILES	Water solubility [1]	Fluorescence quantum yield [2]	Light resistance (light exposure time until absorbance at absorption peak reaches 50%) [3]
Cc1cc(C)n2c1C=C1C=CC(CCC(=O)O)=[N+]1[B-]2(F)F [BODIPY FL]	C (1 μM or more and less than 10 μM)	B (0.7 or more and less than 0.9)	F (less than 10 hours)
CC1=CC(C)=[N+]2C1=C(C)c1c(C)cc(C)n1[B-]2(F)F [BODIPY493/503]	C (1 μM or more and less than 10 μM)	A (0.9 or more)	F (less than 10 hours)
